Test results published in BindingDB's records for doi:10.1021/jm051222g (Uppsala University, 2006).

Target: Type-2 angiotensin II receptor (Sus scrofa)
Test: Displacement of [125I]Ang2 from AT2 receptor in pig uterus myometrium

Ki [µM]	Structure (SMILES)
0.0047	CC[C@H](C)[C@@H]1Nc2c(Cc3ccc(O)cc3)cc(NC(=O)[C@H](CCCN=C(N)N)NC(=O)[C@@H](N)CC(=O)O)cc2CN(CC(=O)N[C@@H](Cc2cnc[nH]2)C(=O)N2CCC[C@H]2C(=O)N[C@@H](Cc2ccccc2)C(=O)O)C1=O [(3S)-3-amino-3-{[(1S)-1-{[(2S)-2-[(2S)-butan-2-yl]-4-({[(2S)-1-[(2S)-2-{[(1S)-1-carboxy-2-phenylethyl]carbamoyl}pyrrolidin-1-yl]-3-(1H-imidazol-4-yl)-1-oxopropan-2-yl]carbamoyl}methyl)-9-[(4-hydroxyphenyl)methyl]-3-oxo-2,3,4,5-tetrahydro-1H-1,4-benzodiazepin-7-yl]carbamoyl}-4-[(diaminomethylidene)amino]butyl]carbamoyl}propanoic acid]
0.0531	CC[C@H](C)[C@@H]1Nc2c(Cc3ccc(O)cc3)cc(NC(=O)[C@H](CCCN=C(N)N)NC(=O)[C@@H](N)CC(=O)O)cc2CN(CC(=O)N2CCC[C@H]2C(=O)N[C@@H](Cc2ccccc2)C(=O)O)C1=O [(3S)-3-amino-3-{[(1S)-1-{[(2S)-2-[(2S)-butan-2-yl]-4-{2-[(2S)-2-{[(1S)-1-carboxy-2-phenylethyl]carbamoyl}pyrrolidin-1-yl]-2-oxoethyl}-9-[(4-hydroxyphenyl)methyl]-3-oxo-2,3,4,5-tetrahydro-1H-1,4-benzodiazepin-7-yl]carbamoyl}-4-[(diaminomethylidene)amino]butyl]carbamoyl}propanoic acid]
